The conditions of data set [1]: BNF 37 March 1999; non-chronotherapeutic; cited from earlier work.
The nature of data set [2]: Proposed equivalent dose in chronotherapeutic administration. As to conditions: proposed clinical dose.
Data set [3] concerns patients with rheumatoid arthritis. Briefly: Assessor-blind study of prednisolone 1 mg and 5 mg given at 02.00: clinical outcomes. In kind it is in vivo. The settings on record: for More or Less (arthritis worse: -1 morning, 0 equal, +1 afternoon) / Pain (VAS) / Painful Joints (tender joint count, n=28) / Swollen Joints (swollen joint count, n=28) / Cln Opn (clinician opinion of condition, VAS) / EMS (morning stiffness) / Pt Opn (patient opinion of condition, VAS): mean; for Pain (VAS) / Painful Joints (tender joint count, n=28) / Swollen Joints (swollen joint count, n=28): 08.30; for Cln Opn (clinician opinion of condition, VAS) / EMS (morning stiffness) / Pt Opn (patient opinion of condition, VAS): 12.00. The source says: Patients stayed the night in hospital but were free to be up and about and to leave the hospital during the day. […] Blood samples and clinical assessments were made at 08.30 and further clinical assessments related to symptoms on the day of drug administration at 12.00 and 08.30 the following day (except the final day when this last assessment was made before departure from the hospital). […] Patients went home on Friday afternoon but returned the following Monday to repeat the procedure. […] The patient and assessor were not aware of which dose was given.
Clinical: Outcome was measured at 08.30 each day for: swollen joint count (n=28); tender joint count (n=28); pain (0.100 mm, VAS). Outcome was measured at 12.00 each day for: morning stiffness (minutes); patient opinion of condition (0-100 mm, VAS); clinician opinion of condition (0-100 mm, VAS). Outcome was measured the following day for: whether the arthritis was worse in the morning or afternoon on the previous day (−1 morning, 0 equal, +1 afternoon).
The assessor was not aware of the treatment order allocation (and probably remained blind), but no placebo tablets were used and it was possible for a patient to be un-blind.
Informed consent was obtained and the patient prescription written by a doctor not associated with trial evaluation. Medication was dispensed at 2 a.m. on each treatment day after gently waking the patient. The patient was encouraged to settle back to sleep immediately.
On the morning before medication and on each morning on the day of medication, blood samples were taken at 8.30 a.m. and outcome assessments recorded then, and at noon, as indicated above.
Symptoms, signs and laboratory results were compared within and between patients, but the main assessment was visual inspection of the overall pattern of response. Means and standard deviations were used to define variation rates and for calculating trial size for future studies. An overall assessment of practicality and the potential for more frequent (but smaller volume) blood taking was made by discussion amongst the staff and patients involved.
This patient's assessments have been included normally in the first week, but in the second week they have been used differently.

For data set [4], the system named is C-reactive protein (CRP). Briefly: Same study: serum C-reactive protein at 08.30. It counts as in vivo, patients.
Procedure: (§1) Serological: Serum samples were obtained at 08.30, kept on ice for up to 1 hour, separated and stored at −70° C. to measure: C-reactive protein (CRP); IL-6 concentration; IL-6 soluble receptor (IL-6sR) concentration; hyaluronate (HA) concentration.
Data set [5] deals with rheumatoid arthritis. As to conditions: daily dosage of 7.5 mg; Kirwan 1995; cited from earlier work.
Data set [6] concerns hyaluronate (HA). Briefly: Same study: serum hyaluronate concentration at 08.30. It counts as in vivo, patients. As to conditions: mean, serum 08.30. More on the design: unit not given beside the values.
The conditions of data set [7]: human, in vivo, 1.25 mg.
Data set [8] concerns IL-6. In words: Same study: serum IL-6 concentration at 08.30. In kind it is in vivo, patients.
Procedure: as §1
The conditions of data set [9]: BNF 37 March 1999; cited from earlier work.
Setting [10] is: 1 mg prednisolone, three patients.
Where [11] appears, read: Dose 1 mg at 02.00, Day 1, mean, serum 08.30.
The mark [12] stands for this setting: Dose 1 mg at 02.00, Day 2, mean, serum 08.30.
Setting [13] is: Dose 1 mg at 02.00, Day 3, mean, serum 08.30.
Setting [14] is: Dose 5 mg at 02.00, Day 11, mean, serum 08.30.
Where [15] appears, read: Dose 5 mg at 02.00, Day 12, mean, serum 08.30.
[16] abbreviates: Dose 5 mg at 02.00, Day 13, mean, serum 08.30.

Consider `CC(=O)OCC(=O)[C@@]1(O)CC[C@H]2[C@@H]3CCC4=CC(=O)CC[C@]4(C)[C@H]3C(=O)C[C@@]21C` [cortisone acetate], for which the “Dose equal to 5 mg prednisolone (Normal dosing)” value (from here on “Dose equal to 5 mg prednisolone”) in [1] is given as 25 mg. For the same compound, the “Equivalent dose in chronotherapeutic administration, equal to 1 mg prednisolone” value (from here on “Equivalent dose”) in data set [2] is 5 mg.
With `CC(=O)OCC(=O)[C@@]12N=C(C)O[C@@H]1C[C@H]1[C@@H]3CCC4=CC(=O)C=C[C@]4(C)[C@H]3[C@@H](O)C[C@@]12C` [deflazacort], the “Dose equal to 5 mg prednisolone” value in data set [1] is listed as 6 mg. For the same compound, the “Equivalent dose” value in data set [2] came out at 1.2 mg.
Consider `C[C@]12CCC(=O)C=C1CC[C@@H]1[C@@H]2[C@@H](O)C[C@@]2(C)[C@H]1CC[C@]2(O)C(=O)CO` [hydrocortisone], for which, in data set [1], the “Dose equal to 5 mg prednisolone” value is 20 mg. Moreover, the “Equivalent dose” value in [2] came out at 4 mg.
As for `C[C@]12C=CC(=O)C=C1CC[C@@H]1[C@@H]2[C@@H](O)C[C@@]2(C)[C@H]1CC[C@]2(O)C(=O)CO` [prednisolone], the EMS entry in data set [3] (setting [10]) is “statistically significantly reduced”. In addition, the Pain result in data set [3] (setting [10]) is “statistically significantly reduced”. In addition, the “clinician's opinion” value in [3] (setting [10]) was “statistically significantly reduced”. In addition, in data set [3] (setting [10]), the “patient's opinion” value is recorded as “statistically significantly reduced”. Besides, in [3] (5 mg prednisolone at 02.00), the “Overall results compared with Arvidson et al.” value is “well within the range of findings published by Arvidson et al”. In addition, the “More or Less (arthritis worse: -1 morning, 0 equal, +1 afternoon)” value was −0.7 in [3] (Dose 1 mg at 02.00, Day 1); −0.7 in [3] (Dose 1 mg at 02.00, Day 2); 0.0 in [3] (Dose 1 mg at 02.00, Day 3); −0.3 in data set [3] (Dose 5 mg at 02.00, Day 11); −0.3 in [3] (Dose 5 mg at 02.00, Day 12); −0.7 in data set [3] (Dose 5 mg at 02.00, Day 13). The “Pain (VAS)” value worked out at 26.0 mm in data set [3] (Dose 1 mg at 02.00, Day 1); 20.3 mm in data set [3] (Dose 1 mg at 02.00, Day 2); 16.7 mm in data set [3] (Dose 1 mg at 02.00, Day 3); 19.7 mm in [3] (Dose 5 mg at 02.00, Day 11); 15.7 mm in data set [3] (Dose 5 mg at 02.00, Day 12); 16.0 mm in [3] (Dose 5 mg at 02.00, Day 13). The “Painful Joints (tender joint count, n=28)” value in data set [3] (Dose 1 mg at 02.00, Day 1) was 20.0; in data set [3] (Dose 1 mg at 02.00, Day 2), 20.3; in data set [3] (Dose 1 mg at 02.00, Day 3) it was 20.3; in data set [3] (Dose 5 mg at 02.00, Day 11) it was 19.0; in data set [3] (Dose 5 mg at 02.00, Day 12), 19.7; in data set [3] (Dose 5 mg at 02.00, Day 13), 19.7. In addition, the “Swollen Joints (swollen joint count, n=28)” value is recorded as 18.7 in data set [3] (Dose 1 mg at 02.00, Day 1); 18.7 in data set [3] (Dose 1 mg at 02.00, Day 2); 18.3 in data set [3] (Dose 1 mg at 02.00, Day 3); 18.0 in [3] (Dose 5 mg at 02.00, Day 11); 17.3 in data set [3] (Dose 5 mg at 02.00, Day 12); 14.0 in data set [3] (Dose 5 mg at 02.00, Day 13). Further, the “Cln Opn (clinician opinion of condition, VAS)” value in data set [3] (Dose 1 mg at 02.00, Day 1) was 28.7 mm; in data set [3] (Dose 1 mg at 02.00, Day 2), 29.3 mm; in data set [3] (Dose 1 mg at 02.00, Day 3), 16.3 mm; in [3] (Dose 5 mg at 02.00, Day 11), 27.7 mm; in data set [3] (Dose 5 mg at 02.00, Day 12) it was 15.7 mm; in [3] (Dose 5 mg at 02.00, Day 13) it was 11.7 mm. Besides, the “EMS (morning stiffness)” value was determined as 55.0 min in data set [3] (Dose 1 mg at 02.00, Day 1); 51.7 min in data set [3] (Dose 1 mg at 02.00, Day 2); 40.0 min in data set [3] (Dose 1 mg at 02.00, Day 3); 30.0 min in [3] (Dose 5 mg at 02.00, Day 11); 20.0 min in data set [3] (Dose 5 mg at 02.00, Day 12); 33.3 min in [3] (Dose 5 mg at 02.00, Day 13). The “Pt Opn (patient opinion of condition, VAS)” value in [3] (Dose 1 mg at 02.00, Day 1) was determined as 23.7 mm; in [3] (Dose 1 mg at 02.00, Day 2), 26.7 mm; in [3] (Dose 1 mg at 02.00, Day 3) it was 12.7 mm; in data set [3] (Dose 5 mg at 02.00, Day 11), 19.3 mm; in [3] (Dose 5 mg at 02.00, Day 12), 11.7 mm; in data set [3] (Dose 5 mg at 02.00, Day 13), 13.3 mm. The CRP entry in data set [4] (1 mg prednisolone) is “tendency for reduction”; in data set [4] (5 mg prednisolone), “reduced significantly”; in data set [4] (setting [11]), 35.5; in [4] (setting [12]) it was 31.2; in data set [4] (setting [13]), 25.8; in data set [4] (setting [14]) it was 36.6. The CRP in [4] (setting [15]) is 31.1; in [4] (setting [16]) it was 19.1. In addition, the “Efficacy in rheumatoid arthritis” value in data set [5] was “effective”. In addition, the HA in [6] (Dose 1 mg at 02.00, Day 1) worked out at 241.9; in data set [6] (Dose 1 mg at 02.00, Day 2), 320.3; in data set [6] (Dose 1 mg at 02.00, Day 3), 372.5; in data set [6] (Dose 5 mg at 02.00, Day 11), 322.5; in data set [6] (Dose 5 mg at 02.00, Day 12), 339.5; in [6] (Dose 5 mg at 02.00, Day 13), 193.9. Also, in [7], the “time to Cmax or Tmax” value fell in the range of 1 to 3 h. Further, the IL-6 entry in data set [8] (1 mg prednisolone) was “tendency for reduction”; in data set [8] (5 mg prednisolone) it was “reduced significantly”; in data set [8] (setting [11]), 28.1; in data set [8] (setting [12]) it was 31.1; in [8] (setting [13]), 22.8; in data set [8] (setting [14]) it was 30.3. Moreover, the IL-6 in data set [8] (setting [15]) is reported as 18.5; in data set [8] (setting [16]), 13.8.
For `C[C@]12C=CC(=O)C=C1CC[C@H]1[C@@H]3C[C@@H](O)[C@](O)(C(=O)CO)[C@@]3(C)C[C@H](O)[C@@]12F` [triamcinolone], the “Broadly similar dose in nasal administration” value in data set [9] is 110 µg. Also, the “Dose equal to 5 mg prednisolone” value in data set [1] is 4 mg. Further, in data set [2], the “Equivalent dose” value was found to be 0.8 mg.
As for methyl prednisone, the “Dose equal to 5 mg prednisolone” value in data set [1] is reported as 4 mg. In data set [2], the “Equivalent dose” value is reported as 0.8 mg.

The values are drawn from US6677326B2 (Arakis, Ltd., priority 1999, dated 2004).
